Measurements: the supplement of paper PMC10477900
Structures can show the parent of a compound that is named as a salt.

Key:
HCT116 [1] = conditions: 72 h
Method: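 HCT116 control and MTA1-KO (CRISPR) HCT116 cells were seeded in 384-well plates (800 cells/well), treated 16 h later with 237 metabolism-related anticancer drugs at five doses (10 uM, 2 uM, 400 nM, 80 nM, 16 nM) for 72 h, two replicates; viability by CCK8. Values are % inhibition of viability relative to untreated cells, plus fitted IC50.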

HCT116 [2] = assay: viability inhibition vs untreated; higher = more cytotoxic; conditions: 72 h

Structure (SMILES) | IC50 (HCT116 [1]; genotype: MTA1-KO) [µM] | IC50 (HCT116 [1]; genotype: control) [µM] | viability inhibition (HCT116 [2]; genotype: MTA1-KO, 16 nM) [%] | viability inhibition (HCT116 [2]; genotype: MTA1-KO, 80 nM) [%] | viability inhibition (HCT116 [2]; genotype: MTA1-KO, 400 nM) [%] | viability inhibition (HCT116 [2]; genotype: MTA1-KO, 2000 nM) [%] | viability inhibition (HCT116 [2]; genotype: MTA1-KO, 10000 nM) [%] | viability inhibition (HCT116 [2]; genotype: control, 16 nM) [%] | viability inhibition (HCT116 [2]; genotype: control, 80 nM) [%] | viability inhibition (HCT116 [2]; genotype: control, 400 nM) [%] | viability inhibition (HCT116 [2]; genotype: control, 2000 nM) [%] | viability inhibition (HCT116 [2]; genotype: control, 10000 nM) [%]
Nc1ncnc2c1ncn2[C@@H]1O[C@H](COP(=O)(O)O)[C@@H](O)[C@H]1O [Adenosine 5'-monophosphate] | > 10 | > 10 | 1.56 | 3.02 | 2 | -3.03 | 4.43 | 9.4 | 14.9 | 9.53 | 10.4 | 17.4
NCCCCN=C(N)N [Agmatine sulfate salt] | 8.87 | > 10 | -2.78 | 3.53 | 1.54 | 7.76 | 55.4 | 11.2 | 9.12 | 22.6 | 28.6 | 22.5
NN=C(N)N [Aminoguanidine hydrochloride] | > 10 | > 10 | -22 | -27.7 | -23.9 | -10.8 | -13.7 | -13.6 | -11.1 | -12.3 | -13.1 | -5.39
O=C1c2cccc(O)c2C(=O)c2c(O)cccc21 [Antrapurol] | > 10 | > 10 | 7.43 | -5.62 | -8.24 | -0.432 | 0.85 | 1.11 | -7.37 | -11.3 | -10.5 | 29.6
O=c1cc(-c2ccc(O)cc2)oc2cc(O)cc(O)c12 [Apigenin] | > 10 | > 10 | -5.33 | -2.46 | -0.547 | -8.58 | 12.7 | 20.8 | 0.478 | 4.05 | 4.56 | 44.8
Cc1c(CN2CCN(C(=O)[C@H](C)O)CC2)sc2c(N3CCOCC3)nc(-c3cnc(N)nc3)nc12 [Apitolisib] | 0.471 | 0.268 | -11.5 | 2.04 | 38.8 | 65.3 | 82.6 | 0.365 | 0.791 | 60.6 | 70.1 | 80.4
CC(C)c1c(C(=O)Nc2ccccc2)c(-c2ccccc2)c(-c2ccc(F)cc2)n1CC[C@@H](O)C[C@@H](O)CC(=O)O [Atorvastatin Calcium] | > 10 | > 10 | -2.27 | -15.2 | -21.3 | -22.7 | -6.12 | 6.18 | -8.85 | -7.43 | -3.65 | 17
Cc1c(NC(=O)c2cc(C(N)=O)nc3cc(F)ccc23)c(C(F)(F)F)nn1Cc1ccc(C#N)cc1 [BAY876] | < 0.016 | < 0.016 | 50.2 | 73 | 82 | 90.4 | 110 | 72.8 | 89.8 | 97.7 | 103 | 102
Cc1cc(-c2nc(-c3ccc(OC(F)(F)F)cc3)no2)nn1Cc1ccnc(N2CCN(C3CC3)CC2)c1 [BAY 87-2243] | > 10 | < 0.016 | 21 | 24.5 | 21.4 | 19.2 | 19.2 | 86.8 | 72.7 | 68.2 | 67.4 | 70.2
N[C@@H](CSCCB(O)O)C(=O)O [BEC HCl] | 8.12 | > 10 | 7.68 | -6.82 | -3.32 | 5.74 | 56.8 | -17.3 | -19 | -3.82 | -14 | -7.11
COc1ccc(-c2ccc3ncc4c(c3c2)n(-c2ccc(N3CCNCC3)c(C(F)(F)F)c2)c(=O)n4C)cn1 [BGT226] | 0.0773 | 0.0713 | 3.91 | 56.3 | 83 | 97.4 | 106 | -4.27 | 60.1 | 90.7 | 99 | 116
O=C(Cc1ccccc1)Nc1nnc(CCSCCc2nnc(NC(=O)Cc3ccccc3)s2)s1 [BPTES] | > 10 | > 10 | -12.8 | -12.2 | 0.728 | 8.71 | 41.5 | -3.88 | -3.14 | -1.6 | -0.809 | -19.2
C/C(=C1/C(=O)Nc2ccc(NC(N)=O)cc21)c1ccc[nH]1 [BX517] | 7.24 | 6.88 | -1.27 | -4.96 | -15 | -7.43 | 62.3 | 7.33 | -2.63 | 0.244 | 10.4 | 67.6
O=C(NCCCNc1nc(Nc2cccc(NC(=O)N3CCCC3)c2)ncc1I)c1cccs1 [BX795] | > 10 | > 10 | -13.8 | -8.82 | -26.4 | -9.81 | -6.85 | -1.4 | -15 | -1.64 | 18.7 | 7.91
O=C(Nc1cccc(Nc2ncc(Br)c(NCCc3cnc[nH]3)n2)c1)N1CCCC1 [BX912] | 1.27 | 1.5 | -9.54 | 7.13 | 22.8 | 64.5 | 92.4 | -0.895 | -7.72 | 13.9 | 47.2 | 75.2
CC1(C)CC[C@]2(C(=O)O)CC[C@]3(C)[C@H](C(=O)C=C4[C@@]5(C)C=C(C#N)C(=O)C(C)(C)[C@@H]5CC[C@]43C)[C@@H]2C1 [Bardoxolone] | 3.04 | 2.54 | 6.64 | -8.28 | -9 | 44.1 | 103 | -7.41 | -6.83 | -2.5 | 40.7 | 103
NS(=O)(=O)c1cc2c(cc1C(F)(F)F)NC(Cc1ccccc1)NS2(=O)=O (centres undefined) [Bendroflumethiazide] | > 10 | > 10 | -4.82 | -2.33 | -5.2 | -12.6 | -13.6 | 0.542 | -1.18 | -14.6 | 4.49 | -9.53
NS(=O)(=O)c1ccccc1 [Benzenesulfonamide] | 9.29 | 8.77 | 3.96 | -4.26 | 4.06 | 12.2 | 54.7 | 7.65 | 12.9 | 10.8 | 25.5 | 55.6
NS(=O)(=O)c1cc2c(cc1Cl)NC(CSCc1ccccc1)=NS2(=O)=O [Benzthiazide] | > 10 | > 10 | -4.89 | -8.13 | -6.12 | -11.1 | 36.1 | -2.68 | 0.658 | -1.2 | 7.85 | 44.8

Structure (SMILES) | IC50 (HCT116 [1]; genotype: MTA1-KO) [µM] | IC50 (HCT116 [1]; genotype: control) [µM] | viability inhibition (HCT116 [2]; genotype: MTA1-KO, 16 nM) [%] | viability inhibition (HCT116 [2]; genotype: MTA1-KO, 80 nM) [%] | viability inhibition (HCT116 [2]; genotype: MTA1-KO, 400 nM) [%] | viability inhibition (HCT116 [2]; genotype: MTA1-KO, 2000 nM) [%] | viability inhibition (HCT116 [2]; genotype: MTA1-KO, 10000 nM) [%] | viability inhibition (HCT116 [2]; genotype: control, 16 nM) [%] | viability inhibition (HCT116 [2]; genotype: control, 80 nM) [%] | viability inhibition (HCT116 [2]; genotype: control, 400 nM) [%] | viability inhibition (HCT116 [2]; genotype: control, 2000 nM) [%] | viability inhibition (HCT116 [2]; genotype: control, 10000 nM) [%]
c1ccc(-c2ccc(C(c3ccccc3)n3ccnc3)cc2)cc1 (centres undefined) [Bifonazole] | > 10 | > 10 | -14.7 | -10.9 | -14.8 | -16.2 | 16.8 | 7.85 | -6.02 | -12.2 | -12 | 18.9
C[C@H]1CCC/C=C/[C@@H]2C[C@H](O)C[C@H]2[C@H](O)/C=C/C(=O)O1 [Brefeldin A] | 0.255 | 0.166 | -15.6 | -20.1 | 104 | 105 | 105 | 4.87 | -4.17 | 112 | 109 | 110
CCN[C@H]1CN(CCCOC)S(=O)(=O)c2sc(S(N)(=O)=O)cc21 [Brinzolamide] | > 10 | > 10 | -13.1 | -25.7 | -24.4 | -29.9 | -25.2 | -12.4 | -11.9 | -8.93 | -15.3 | -13.6
C[C@]12CC[C@H](O)C[C@H]1CC[C@@H]1[C@@H]2CC[C@]2(C)[C@@H](c3ccc(=O)oc3)CC[C@]12O [Bufalin] | 0.143 | < 0.016 | 15.4 | 39 | 58.6 | 83.8 | 91 | 65.7 | 67.6 | 69.3 | 77.6 | 80.9
O=C(Cc1cccc(OC(F)(F)F)c1)Nc1ccc(CCCCc2nnc(NC(=O)Cc3ccccn3)s2)nn1 [CB839] | > 10 | > 10 | -4.17 | 2.28 | -14.1 | 1.81 | 3.54 | 0.501 | 13.6 | 24 | 20.5 | 20.2
CC(=O)c1ccc2c(c1)c1cc(C(C)=O)ccc1n2CCNC(C)C [CBL0137 hydrochloride] | 0.379 | 0.355 | -9.26 | -16.6 | 65.6 | 114 | 109 | 7.74 | -9.1 | 81.5 | 108 | 103
CCN1C(=O)CNc2ncc(-c3ccc(-c4ncn[nH]4)nc3C)nc21 [CC115] | 2.13 | 4.96 | 5.59 | -19.9 | -8.79 | 27.2 | 81.2 | -13.9 | -10.3 | -8.79 | 7.12 | 74.9
COC1CCC(N2C(=O)CNc3ncc(-c4ccc(C(C)(C)O)nc4)nc32)CC1 (centres undefined) [CC223] | > 10 | > 10 | -8.46 | -17.5 | -1.64 | 13.1 | 22.1 | 11.3 | -6.69 | -3.2 | -6.07 | 35.3
O=C(O)c1ccc(C=C2SC(=S)N(c3cccc(C(F)(F)F)c3)C2=O)cc1 [CFTRinh172] | > 10 | 5.31 | -5.28 | -12.6 | -0.878 | -4.39 | 25.2 | -6.21 | -18.3 | -11.9 | 16 | 64.3
N#CNC(=NCCCCCCOc1ccc(Cl)cc1)Nc1ccncc1 [CHS 828] | 0.535 | 1.85 | -0.922 | -1.84 | 18.8 | 41.1 | 49 | -11.1 | 18.5 | 30.7 | 59.8 | 79.4
S=C(N/N=C1/CCCc2cccnc21)N1CCN(c2ccccn2)CC1 [COTI2] | 0.246 | 1.07 | 5.92 | 0.177 | 50.3 | 49.7 | 67.4 | 8.87 | -13.6 | -3.5 | 87.4 | 88.4
O=C(O)CCCCC(CCSCc1ccccc1)SCc1ccccc1 (centres undefined) [CPI613] | > 10 | > 10 | -15.7 | -15.1 | -22.2 | -25.4 | -7.62 | 7.59 | -3.09 | -6.23 | -6.02 | 8.56
CCNC(=O)Nc1ccc(-c2nc(N3CCOC[C@@H]3C)c3c(n2)C(C)(C)S(=O)(=O)C3)cc1 [CZ415] | 0.501 | 0.552 | -6.27 | -12.8 | 23.6 | 61.9 | 75.6 | -5.97 | 12.9 | 20.8 | 61.7 | 60.1
CC(C)c1ccc(C(=O)N=C(N)N)cc1S(C)(=O)=O [Cariporide] | > 10 | > 10 | -28.1 | -33.2 | -32 | -35.2 | -20.9 | 19.4 | -4.81 | -9.25 | -4.56 | 22.7
CC1(C)CC[C@]2(C(=O)O[C@@H]3O[C@H](CO)[C@@H](O)[C@H](O)[C@H]3O)CC[C@]3(C)C(=CC[C@@H]4[C@@]5(C)CC[C@H](O[C@@H]6O[C@H](C(=O)O)[C@@H](O)[C@H](O)[C@H]6O)C(C)(C)[C@@H]5CC[C@]43C)[C@@H]2C1 [Chikusetsusaponin IVa] | > 10 | > 10 | -3.21 | -3.77 | -2.17 | -0.406 | 19.3 | -1.39 | -7.09 | -12.1 | -11.2 | 3.05
NS(=O)(=O)c1cc2c(cc1Cl)NC=NS2(=O)=O [Chlorothiazide] | > 10 | > 10 | -10.2 | -0.674 | -4.5 | -3.61 | -8.39 | 3.92 | 0.542 | 0.606 | -0.861 | 5.64
Cc1cc(C2CCCCC2)n(O)c(=O)c1 [Ciclopirox ethanolamine] | 7.38 | 1.88 | -18 | -22.5 | -14.4 | -5.78 | 54.5 | -10.2 | 5.38 | 5.2 | 46.4 | 91.6
Cc1cc(C2CCCCC2)n(O)c(=O)c1 [Ciclopirox] | 4.96 | 1.02 | -13.6 | 8.1 | -8.33 | 25.7 | 64.7 | 9.52 | 6.31 | 24 | 77 | 113
